Results published in patent US7511144B2, “Reverse hydroxamic acid derivatives” (Kaken Pharmaceutical Co., Ltd., priority 2001, dated 2009).

biological target: T1, TACE (Homo sapiens, UniProt P78536); test: TACE inhibition experiment (in vitro); assay type: biochemical; settings: not given
T1 construct: made in house; host or cells: mammalian cells or insect cells
T1 sequence (P78536 215-824): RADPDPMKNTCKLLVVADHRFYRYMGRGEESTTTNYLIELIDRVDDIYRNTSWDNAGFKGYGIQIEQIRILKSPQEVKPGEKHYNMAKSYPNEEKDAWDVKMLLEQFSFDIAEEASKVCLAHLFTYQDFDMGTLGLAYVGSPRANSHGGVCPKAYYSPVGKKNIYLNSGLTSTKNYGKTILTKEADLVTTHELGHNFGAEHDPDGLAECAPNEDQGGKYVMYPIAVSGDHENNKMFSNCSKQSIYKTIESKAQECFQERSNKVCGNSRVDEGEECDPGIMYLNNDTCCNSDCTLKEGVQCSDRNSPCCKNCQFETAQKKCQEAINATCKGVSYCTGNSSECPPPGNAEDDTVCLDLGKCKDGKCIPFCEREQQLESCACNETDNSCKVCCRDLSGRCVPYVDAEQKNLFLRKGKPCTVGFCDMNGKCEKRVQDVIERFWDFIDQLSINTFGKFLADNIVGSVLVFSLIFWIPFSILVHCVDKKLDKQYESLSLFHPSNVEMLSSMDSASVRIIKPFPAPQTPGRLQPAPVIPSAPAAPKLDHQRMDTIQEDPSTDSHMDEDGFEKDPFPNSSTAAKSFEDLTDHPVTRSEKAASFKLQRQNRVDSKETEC

Structure (SMILES) | IC50 [µM]
Cc1cc(COc2ccc(S(=O)(=O)CC(C(F)=C3CCOCC3)N(O)C=O)cc2)c2ccccc2n1 (stereo not shown) [Example I-16] | 0.007
Cc1cc(COc2ccc(S(=O)(=O)CC(C(Cl)=C3CCOCC3)N(O)C=O)cc2)c2ccccc2n1 (stereo not shown) [Example I-19] | 0.0063
Cc1cc(COc2ccc(S(=O)(=O)CC(c3ccccc3C)N(O)C=O)cc2)c2ccccc2n1 (stereo not shown) [Example I-23] | 0.005

Continued, values first:

IC50 [µM] | Structure (SMILES)
0.022 | Cc1cc(COc2ccc(S(=O)(=O)CC(CN3CCN(CC(C)C)CC3)N(O)C=O)cc2)c2ccccc2n1 (stereo not shown) [Example I-46]
0.005 | Cc1ccc2nc(C)cc(COc3ccc(S(=O)(=O)CC(CC4CCC(=NO)CC4)N(O)C=O)cc3)c2c1 (stereo not shown) [Example I-76]

biological target: T2, Human MMP1 (Homo sapiens, UniProt P03956); test: MMP1 inhibition experiment; assay type: biochemical; settings: read-out: IC50 value MMP-1
T2 construct: purchased Calbiochem 444208
T2 sequence (P03956 100-469): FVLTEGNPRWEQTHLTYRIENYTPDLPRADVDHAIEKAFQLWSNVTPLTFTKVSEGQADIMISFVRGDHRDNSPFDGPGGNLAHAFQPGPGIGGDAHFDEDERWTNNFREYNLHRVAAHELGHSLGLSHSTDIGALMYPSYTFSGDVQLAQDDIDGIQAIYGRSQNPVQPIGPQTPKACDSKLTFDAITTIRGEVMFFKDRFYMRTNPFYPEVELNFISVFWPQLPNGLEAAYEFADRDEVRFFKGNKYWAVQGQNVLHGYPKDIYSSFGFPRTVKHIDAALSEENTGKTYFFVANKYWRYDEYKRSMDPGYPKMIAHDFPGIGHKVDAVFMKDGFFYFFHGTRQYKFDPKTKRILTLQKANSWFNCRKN

Structure (SMILES) | IC50 [µM]
Cc1cc(COc2ccc(S(=O)(=O)CC(C(F)=C3CCOCC3)N(O)C=O)cc2)c2ccccc2n1 (stereo not shown) [Example I-16] | > 100
Cc1cc(COc2ccc(S(=O)(=O)CC(C(Cl)=C3CCOCC3)N(O)C=O)cc2)c2ccccc2n1 (stereo not shown) [Example I-19] | > 100
Cc1cc(COc2ccc(S(=O)(=O)CC(c3ccccc3C)N(O)C=O)cc2)c2ccccc2n1 (stereo not shown) [Example I-23] | 60

Next, values leading:

IC50 [µM] | Structure (SMILES)
> 100 | Cc1cc(COc2ccc(S(=O)(=O)CC(CN3CCN(CC(C)C)CC3)N(O)C=O)cc2)c2ccccc2n1 (stereo not shown) [Example I-46]
40 | Cc1ccc2nc(C)cc(COc3ccc(S(=O)(=O)CC(CC4CCC(=NO)CC4)N(O)C=O)cc3)c2c1 (stereo not shown) [Example I-76]

biological target: T3, Human MMP2 (Homo sapiens, UniProt P08253); test: MMP2 inhibition experiment; assay type: biochemical; settings: concentration required for 50% inhibition of enzyme activity; read-out: IC50 value MMP-2
T3 construct: purchased Calbiochem 444213
T3 sequence (P08253 110-660): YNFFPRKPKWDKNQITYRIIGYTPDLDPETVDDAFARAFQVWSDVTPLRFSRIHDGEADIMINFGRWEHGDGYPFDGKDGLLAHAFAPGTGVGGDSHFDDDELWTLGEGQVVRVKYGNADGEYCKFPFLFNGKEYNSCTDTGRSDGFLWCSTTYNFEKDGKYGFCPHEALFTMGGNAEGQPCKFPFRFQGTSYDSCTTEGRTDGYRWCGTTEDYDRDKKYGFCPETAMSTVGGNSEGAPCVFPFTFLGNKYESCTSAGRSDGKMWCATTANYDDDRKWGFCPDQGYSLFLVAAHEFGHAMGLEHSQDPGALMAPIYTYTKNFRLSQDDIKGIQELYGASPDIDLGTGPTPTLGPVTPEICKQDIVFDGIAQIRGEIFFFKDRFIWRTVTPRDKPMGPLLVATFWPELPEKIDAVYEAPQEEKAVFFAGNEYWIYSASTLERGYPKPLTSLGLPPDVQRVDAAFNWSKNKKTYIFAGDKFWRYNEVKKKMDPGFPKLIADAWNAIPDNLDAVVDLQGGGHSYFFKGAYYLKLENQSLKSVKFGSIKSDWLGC

Structure (SMILES) | IC50 [µM]
Cc1cc(COc2ccc(S(=O)(=O)CC(C(F)=C3CCOCC3)N(O)C=O)cc2)c2ccccc2n1 (stereo not shown) [Example I-16] | 40
Cc1cc(COc2ccc(S(=O)(=O)CC(C(Cl)=C3CCOCC3)N(O)C=O)cc2)c2ccccc2n1 (stereo not shown) [Example I-19] | > 100
Cc1cc(COc2ccc(S(=O)(=O)CC(c3ccccc3C)N(O)C=O)cc2)c2ccccc2n1 (stereo not shown) [Example I-23] | 30

Now from value to compound:

IC50 [µM] | Structure (SMILES)
20 | Cc1cc(COc2ccc(S(=O)(=O)CC(CN3CCN(CC(C)C)CC3)N(O)C=O)cc2)c2ccccc2n1 (stereo not shown) [Example I-46]
10 | Cc1ccc2nc(C)cc(COc3ccc(S(=O)(=O)CC(CC4CCC(=NO)CC4)N(O)C=O)cc3)c2c1 (stereo not shown) [Example I-76]

biological target: T4, Human MMP3 (Homo sapiens, UniProt P08254); test: MMP3 inhibition experiment; assay type: biochemical; settings: concentration required for 50% inhibition of enzyme activity; read-out: IC50 value MMP-3
T4 construct: purchased Calbiochem 444217
T4 sequence (P08254 100-272 limits assumed): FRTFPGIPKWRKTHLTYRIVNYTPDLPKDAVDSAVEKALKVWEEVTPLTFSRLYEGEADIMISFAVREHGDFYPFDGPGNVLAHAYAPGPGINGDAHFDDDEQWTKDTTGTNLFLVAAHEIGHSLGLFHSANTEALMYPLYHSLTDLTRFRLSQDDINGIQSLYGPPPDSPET
Procedure: (§1) MMP inhibition experiment may be carried out using a fluorescent synthetic substrate according to, for example, the methods of Bickett et al. (D. Mark Bickett et al., Anal. Biochem., 1993, 212, 58-64) and Nagase et al. (H. Nagase et al., J. Biol. Chem., 1994, 269, 20952-20957). The methods of inhibition experiments carried out for various MMPs are described below.
Human MMP3 (Calbiochem #444217) in 90 μL (5 ng) prepared in the assay buffer A was added to 90 μL of 20 μM fluorescent substrate NFF-3(MOCAc-Arg-Pro-Lys-Pro-Val-Glu-Nva-Trp-Arg-Lys(Dnp)-NH2, Peptide Institute, Inc., #3168-v) prepared in the assay buffer B, followed by reaction for 5 hours at 37° C.

Structure (SMILES) | IC50 [µM]
Cc1cc(COc2ccc(S(=O)(=O)CC(C(F)=C3CCOCC3)N(O)C=O)cc2)c2ccccc2n1 (stereo not shown) [Example I-16] | 10
Cc1cc(COc2ccc(S(=O)(=O)CC(C(Cl)=C3CCOCC3)N(O)C=O)cc2)c2ccccc2n1 (stereo not shown) [Example I-19] | 20
Cc1cc(COc2ccc(S(=O)(=O)CC(c3ccccc3C)N(O)C=O)cc2)c2ccccc2n1 (stereo not shown) [Example I-23] | 3

Other lines, results leading:

IC50 [µM] | Structure (SMILES)
4.4 | Cc1cc(COc2ccc(S(=O)(=O)CC(CN3CCN(CC(C)C)CC3)N(O)C=O)cc2)c2ccccc2n1 (stereo not shown) [Example I-46]
0.8 | Cc1ccc2nc(C)cc(COc3ccc(S(=O)(=O)CC(CC4CCC(=NO)CC4)N(O)C=O)cc3)c2c1 (stereo not shown) [Example I-76]

biological target: T5, Human MMP9 (Homo sapiens, UniProt P14780); test: MMP9 inhibition experiment; assay type: biochemical; settings: read-out: IC50 value MMP-9
T5 construct: purchased Calbiochem 444231
T5 sequence (P14780 107-707 limits assumed): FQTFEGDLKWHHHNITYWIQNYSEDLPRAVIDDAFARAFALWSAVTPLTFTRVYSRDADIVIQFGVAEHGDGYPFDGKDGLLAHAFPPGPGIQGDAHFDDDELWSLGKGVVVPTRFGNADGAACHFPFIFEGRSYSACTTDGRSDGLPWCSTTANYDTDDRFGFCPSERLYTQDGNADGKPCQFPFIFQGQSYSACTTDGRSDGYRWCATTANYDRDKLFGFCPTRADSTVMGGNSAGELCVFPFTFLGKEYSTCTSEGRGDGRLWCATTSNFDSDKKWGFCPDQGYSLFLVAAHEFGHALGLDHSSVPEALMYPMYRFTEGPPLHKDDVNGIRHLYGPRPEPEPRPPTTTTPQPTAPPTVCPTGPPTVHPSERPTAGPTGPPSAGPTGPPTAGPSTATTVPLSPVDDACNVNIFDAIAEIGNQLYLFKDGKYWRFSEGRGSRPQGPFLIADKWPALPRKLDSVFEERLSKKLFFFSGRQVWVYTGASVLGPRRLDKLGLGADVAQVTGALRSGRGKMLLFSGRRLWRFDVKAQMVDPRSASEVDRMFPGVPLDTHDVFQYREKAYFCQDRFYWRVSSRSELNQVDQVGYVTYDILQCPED

Structure (SMILES) | IC50 [µM]
Cc1cc(COc2ccc(S(=O)(=O)CC(C(F)=C3CCOCC3)N(O)C=O)cc2)c2ccccc2n1 (stereo not shown) [Example I-16] | > 100
Cc1cc(COc2ccc(S(=O)(=O)CC(C(Cl)=C3CCOCC3)N(O)C=O)cc2)c2ccccc2n1 (stereo not shown) [Example I-19] | > 100
Cc1cc(COc2ccc(S(=O)(=O)CC(c3ccccc3C)N(O)C=O)cc2)c2ccccc2n1 (stereo not shown) [Example I-23] | 50

Results, then the compound that gave them:

IC50 [µM] | Structure (SMILES)
> 100 | Cc1cc(COc2ccc(S(=O)(=O)CC(CN3CCN(CC(C)C)CC3)N(O)C=O)cc2)c2ccccc2n1 (stereo not shown) [Example I-46]
40 | Cc1ccc2nc(C)cc(COc3ccc(S(=O)(=O)CC(CC4CCC(=NO)CC4)N(O)C=O)cc3)c2c1 (stereo not shown) [Example I-76]

biological target: T6, Human MMP13 (Homo sapiens, UniProt P45452); test: MMP13 inhibition experiment; assay type: biochemical; settings: concentration required for 50% inhibition of enzyme activity; read-out: IC50 value MMP-13
T6 construct: purchased Chemicon CC068

Structure (SMILES) | IC50 [µM]
Cc1cc(COc2ccc(S(=O)(=O)CC(C(F)=C3CCOCC3)N(O)C=O)cc2)c2ccccc2n1 (stereo not shown) [Example I-16] | 40
Cc1cc(COc2ccc(S(=O)(=O)CC(C(Cl)=C3CCOCC3)N(O)C=O)cc2)c2ccccc2n1 (stereo not shown) [Example I-19] | 70
Cc1cc(COc2ccc(S(=O)(=O)CC(c3ccccc3C)N(O)C=O)cc2)c2ccccc2n1 (stereo not shown) [Example I-23] | 15

Results, then the compound that gave them:

IC50 [µM] | Structure (SMILES)
42 | Cc1cc(COc2ccc(S(=O)(=O)CC(CN3CCN(CC(C)C)CC3)N(O)C=O)cc2)c2ccccc2n1 (stereo not shown) [Example I-46]
6 | Cc1ccc2nc(C)cc(COc3ccc(S(=O)(=O)CC(CC4CCC(=NO)CC4)N(O)C=O)cc3)c2c1 (stereo not shown) [Example I-76]

biological target: T7, Human MMP14 (Homo sapiens, UniProt P50281); test: MMP14 inhibition experiment; assay type: biochemical; settings: concentration required for 50% inhibition of enzyme activity; read-out: IC50 value MMP-14
T7 construct: purchased Biogenesis or Calbiochem 5980-1461 or 475935
Procedure: as §1
Human MMP14 (Biogenesis #5980-1461 or Calbiochem #475935) in amount of 90 μL (4 ng) prepared in the assay buffer A was added to 90 μL of 20 μM fluorescent substrate (Dnp-Pro-Cha-Gly-Cys(Me)-His-Ala-Lys(Nma)-NH2) prepared in the assay buffer B, followed by reaction for 5 hours at 37° C.

Structure (SMILES) | IC50 [µM]
Cc1cc(COc2ccc(S(=O)(=O)CC(C(F)=C3CCOCC3)N(O)C=O)cc2)c2ccccc2n1 (stereo not shown) [Example I-16] | > 100
Cc1cc(COc2ccc(S(=O)(=O)CC(C(Cl)=C3CCOCC3)N(O)C=O)cc2)c2ccccc2n1 (stereo not shown) [Example I-19] | > 100
Cc1cc(COc2ccc(S(=O)(=O)CC(c3ccccc3C)N(O)C=O)cc2)c2ccccc2n1 (stereo not shown) [Example I-23] | 33

The remaining lines, values ahead:

IC50 [µM] | Structure (SMILES)
> 100 | Cc1cc(COc2ccc(S(=O)(=O)CC(CN3CCN(CC(C)C)CC3)N(O)C=O)cc2)c2ccccc2n1 (stereo not shown) [Example I-46]
31 | Cc1ccc2nc(C)cc(COc3ccc(S(=O)(=O)CC(CC4CCC(=NO)CC4)N(O)C=O)cc3)c2c1 (stereo not shown) [Example I-76]

biological target: T8, Human MMP17 (Homo sapiens, UniProt Q9ULZ9); test: MMP17 inhibition test; assay type: biochemical; settings: concentration required for 50% inhibition of enzyme activity; read-out: IC50 value MMP-17
T8 construct: purchased Calbiochem 475940
T8 sequence (Q9ULZ9 126-300 limits assumed): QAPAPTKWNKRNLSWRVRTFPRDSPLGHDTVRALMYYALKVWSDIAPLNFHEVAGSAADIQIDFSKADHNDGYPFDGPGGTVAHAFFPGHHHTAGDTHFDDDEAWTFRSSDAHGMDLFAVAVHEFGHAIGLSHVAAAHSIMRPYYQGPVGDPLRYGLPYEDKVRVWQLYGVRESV

Structure (SMILES) | IC50 [µM]
Cc1cc(COc2ccc(S(=O)(=O)CC(C(F)=C3CCOCC3)N(O)C=O)cc2)c2ccccc2n1 (stereo not shown) [Example I-16] | 5.5
Cc1cc(COc2ccc(S(=O)(=O)CC(C(Cl)=C3CCOCC3)N(O)C=O)cc2)c2ccccc2n1 (stereo not shown) [Example I-19] | 7
Cc1cc(COc2ccc(S(=O)(=O)CC(c3ccccc3C)N(O)C=O)cc2)c2ccccc2n1 (stereo not shown) [Example I-23] | 2.1

Further lines, results first:

IC50 [µM] | Structure (SMILES)
0.65 | Cc1cc(COc2ccc(S(=O)(=O)CC(CN3CCN(CC(C)C)CC3)N(O)C=O)cc2)c2ccccc2n1 (stereo not shown) [Example I-46]
1.6 | Cc1ccc2nc(C)cc(COc3ccc(S(=O)(=O)CC(CC4CCC(=NO)CC4)N(O)C=O)cc3)c2c1 (stereo not shown) [Example I-76]
